Experimental data reported in patent publication US20040224958A1, “Pyridopyrimidinone derivatives for treatment of neurodegenerative disease” (priority 2000, published 2004).
Like-named read-outs stand apart in the source and are kept apart here.

Experiments:
cdk4/D = cdk4/D (Homo sapiens, UniProt P11802); test: Cyclin-Dependent Kinase 4 (cdk4) Assay; assay type: biochemical; conditions: read-out: cdk4/D IC50
Cdk5/p25 = Cdk5/p25 (Homo sapiens, UniProt Q00535); test: Cyclin-Dependent Kinase 5 High Throughput Screening (cdk5-HTS) Assay; assay type: biochemical; conditions: high throughput screen
Procedure, shortened: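 IC50 determined from 33P incorporation into GST-RbCOOH captured on glutathione plates and read by scintillation counting. Reaction: 1.0 μg/mL Cdk5/p25, 20 μM [γ33P]ATP, pH 7.4 Tris buffer with MgCl2 and DTT, 30 min at room temperature, stopped with EDTA.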

cdk2/cyclinE = cdk2/cyclinE (Homo sapiens, UniProt P24941); test: Cyclin-Dependent Kinase Assay cdk2/cyclinE
cdk2/cyclinA = cdk2/cyclinA (Homo sapiens, UniProt P24941); test: Cyclin-Dependent Kinase Assay cdk2/cyclinA
cdc2/cyclinB = cdc2/cyclinB (Homo sapiens, UniProt P06493); test: Cyclin-Dependent Kinase Assay cdc2/cyclinB
Chain of cdc2/cyclinB (P06493 whole entry): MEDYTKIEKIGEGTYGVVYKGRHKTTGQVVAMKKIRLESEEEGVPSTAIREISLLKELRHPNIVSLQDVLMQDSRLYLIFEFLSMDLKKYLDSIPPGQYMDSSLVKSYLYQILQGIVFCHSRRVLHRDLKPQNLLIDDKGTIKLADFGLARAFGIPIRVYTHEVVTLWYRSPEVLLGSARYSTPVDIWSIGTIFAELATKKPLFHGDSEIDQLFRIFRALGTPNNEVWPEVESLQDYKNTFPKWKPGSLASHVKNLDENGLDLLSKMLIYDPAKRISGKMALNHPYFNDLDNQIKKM
Chain of cdc2/cyclinB (P14635 whole entry, further chain): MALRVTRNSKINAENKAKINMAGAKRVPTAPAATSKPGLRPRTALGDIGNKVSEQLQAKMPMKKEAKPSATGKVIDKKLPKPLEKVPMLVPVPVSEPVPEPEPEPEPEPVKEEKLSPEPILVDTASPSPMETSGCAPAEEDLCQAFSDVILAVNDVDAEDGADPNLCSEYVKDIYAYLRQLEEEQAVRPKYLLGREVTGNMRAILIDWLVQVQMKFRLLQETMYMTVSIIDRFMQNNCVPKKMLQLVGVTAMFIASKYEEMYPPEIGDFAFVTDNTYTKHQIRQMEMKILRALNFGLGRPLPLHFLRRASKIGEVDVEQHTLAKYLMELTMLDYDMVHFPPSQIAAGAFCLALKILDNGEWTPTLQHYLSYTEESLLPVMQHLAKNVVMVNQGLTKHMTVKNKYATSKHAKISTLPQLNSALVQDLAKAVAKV

Chain of cdk4/D (P11802 whole entry): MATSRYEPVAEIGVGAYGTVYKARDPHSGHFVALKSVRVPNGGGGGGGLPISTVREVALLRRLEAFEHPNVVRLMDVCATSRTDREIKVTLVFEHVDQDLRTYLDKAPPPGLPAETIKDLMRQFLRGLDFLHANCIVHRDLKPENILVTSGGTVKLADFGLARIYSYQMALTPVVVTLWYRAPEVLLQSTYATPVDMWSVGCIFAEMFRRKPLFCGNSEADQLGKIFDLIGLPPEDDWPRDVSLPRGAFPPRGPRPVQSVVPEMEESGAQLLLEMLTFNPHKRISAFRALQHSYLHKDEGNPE
Chain of cdk4/D (P24385 whole entry, further chain): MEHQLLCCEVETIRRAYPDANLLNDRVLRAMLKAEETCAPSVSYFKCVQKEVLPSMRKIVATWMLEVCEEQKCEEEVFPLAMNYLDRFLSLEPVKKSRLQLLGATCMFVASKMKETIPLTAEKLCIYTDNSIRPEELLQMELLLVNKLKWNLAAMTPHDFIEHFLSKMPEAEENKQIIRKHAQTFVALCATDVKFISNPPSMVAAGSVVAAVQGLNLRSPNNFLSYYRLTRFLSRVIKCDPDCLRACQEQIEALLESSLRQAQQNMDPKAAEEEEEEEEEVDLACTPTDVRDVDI

Molecule	IC50 (cdk4/D)	IC50 (Cdk5/p25)	IC50 (cdk2/cyclinE; cdk2/E IC50)	IC50 (cdk2/cyclinA; cdk2/A IC50)	IC50 (cdc2/cyclinB)	IC50 (cdk2/cyclinE; read-out: cdk2/E IC50)	IC50 (cdk2/cyclinA; read-out: cdk2/A IC50)	IC50 (cdc2/cyclinB; read-out: cdk1/B IC50)
Cc1cc(Nc2ncc3ccc(=O)n(C4CCCC4)c3n2)ccc1Br [Example 562, 2-(4-Bromo-3-methyl-phenylamino)-8-cyclopentyl-8H-pyrido[2,3-d]pyrimidin-7-one]	0.16 µM	0.05 µM	0.14 µM	0.056 µM	0.047 µM			
O=c1ccc2cnc(Nc3cccc(O)c3)nc2n1CC1CC1 [Example 578, 8-Cyclopropylmethyl-2-(3-hydroxy-phenylamino)-8H-pyrido[2,3-d]pyrimidin-7-one]	0.14 µM	0.11 µM	0.17 µM	0.19 µM	0.31 µM			
CCC(CC)n1c(=O)ccc2cnc(Nc3cccc(O)c3)nc21 [Example 512, 8-(1-Ethyl-propyl)-2-(3-hydroxy-phenylamino)-8H-pyrido[2,3-d]pyrimidin-7-one]	2.2 µM	0.083 µM	0.056 µM	0.12 µM	0.039 µM			
CCCCn1c(=O)ccc2cnc(Nc3cccc(C(F)(F)F)c3)nc21 [Example 373, 8-Butyl-2-(3-trifluoromethyl-phenylamino)-8H-pyrido[2,3-d]pyrimidin-7-one]	2.15 µM	0.214 µM	0.208 µM	1.15 µM	0.43 µM			
O=c1ccc2cnc(Nc3ccc(O)c(Cl)c3)nc2n1CC1CC1 [Example 567, 2-(3-Chloro-4-hydroxy-phenylamino)-8-cyclopropylmethyl-8H-pyrido[2,3-d]pyrimidin-7-one]	0.145 µM	0.0315 µM	0.0163 µM	0.0545 µM	0.076 µM			
CCn1c(=O)ccc2cnc(Nc3ccc(S(N)(=O)=O)cc3)nc21 [Example 295, 4-(8-Ethyl-7-oxo-7,8-dihydro-pyrido[2,3-d]pyrimidin-2-ylamino)-benzenesulfonamide]	0.95 µM	0.064 µM	0.058 µM	0.13 µM	0.39 µM			
CCC(CC)n1c(=O)ccc2cnc(Nc3ccc(O)c(Cl)c3)nc21 [Example 496, 2-(3-Chloro-4-hydroxy-phenylamino)-8-(1-ethyl-propyl)-8H-pyrido[2,3-d]pyrimidin-7-one]	0.28 µM	0.0175 µM	0.031 µM	0.0895 µM	0.024 µM			
Cc1ccc(Nc2ncc3ccc(=O)n(C4CCCC4)c3n2)cc1C [Example 549, 8-Cyclopentyl-2-(3,4-dimethyl-phenylamino)-8H-pyrido[2,3-d]pyrimidin-7-one]	0.07 µM	0.059 µM	0.29 µM	0.19 µM	0.2 µM			
CCC(CC)n1c(=O)ccc2cnc(Nc3cccc(C(F)(F)F)c3)nc21 [Example 487, 8-(1-Ethyl-propyl)-2-(3-trifluoromethyl-phenylamino)-8H-pyrido[2,3-d]pyrimidin-7-one]	0.692 µM	0.0768 µM	0.21 µM	0.728 µM	0.177 µM			

More lines, in order of falling IC50 (cdk4/D), values ahead:

IC50 (cdk4/D)	IC50 (Cdk5/p25)	IC50 (cdk2/cyclinE; cdk2/E IC50)	IC50 (cdk2/cyclinA; cdk2/A IC50)	IC50 (cdc2/cyclinB)	IC50 (cdk2/cyclinE; read-out: cdk2/E IC50)	IC50 (cdk2/cyclinA; read-out: cdk2/A IC50)	IC50 (cdc2/cyclinB; read-out: cdk1/B IC50)	Molecule
2.4 µM	0.28 µM	0.25 µM	0.76 µM	0.34 µM				CCC(C)n1c(=O)ccc2cnc(Nc3cc(OC)c(OC)c(OC)c3)nc21 (centres unmarked) [Example 457, 8-sec-Butyl-2-(3,4,5-trimethoxy-phenylamino)-8H-pyrido[2,3-d]pyrimidin-7-one]
0.91 µM	0.49 µM	0.37 µM	0.22 µM	0.45 µM				O=C(O)c1cc(Nc2ncc3ccc(=O)n(C4CCCC4)c3n2)ccc1O [Example 560, 5-(8-Cyclopentyl-7-oxo-7,8-dihydro-pyrido[2,3-d]pyrimidin-2-ylamino)-2-hydroxy-benzoic acid]
0.85 µM	0.18 µM	0.77 µM	1.8 µM	0.49 µM				COc1cc(Nc2ncc3ccc(=O)n(C(C)C)c3n2)cc(C(F)(F)F)c1 [Example 425, 8-Isopropyl-2-(3-methoxy-5-trifluoromethyl-phenylamino)-8H-pyrido[2,3-d]pyrimidin-7-one]
0.67 µM	0.59 µM	0.32 µM	1.55 µM	1.3 µM				CCCCn1c(=O)ccc2cnc(Nc3ccc(O)cc3F)nc21 [Example 382, 8-Butyl-2-(2-fluoro-4-hydroxy-phenylamino)-8H-pyrido[2,3-d]pyrimidin-7-one]
0.49 µM	0.29 µM	0.24 µM	1.1 µM	1.1 µM				CCCCn1c(=O)ccc2cnc(Nc3cc([N+](=O)[O-])ccc3F)nc21 [Example 415, 8-Butyl-2-(2-fluoro-5-nitro-phenylamino)-8H-pyrido[2,3-d]pyrimidin-7-one]
0.26 µM	0.0444 µM	0.179 µM	0.436 µM	0.151 µM				CCC(CC)n1c(=O)ccc2cnc(Nc3ccc(C)c(C)c3)nc21 [Example 491, 2-(3,4-Dimethyl-phenylamino)-8-(I-ethyl-propyl)-8H-pyrido[2,3-d]pyrimidin-7-one]
0.19 µM	0.1 µM				0.18 µM	0.82 µM	0.26 µM	2-(3-Chloro-4-iodo-phenylamino)-8-propyl-8H-pyrido[2,3-d]pyrimidin-7-one [Example 573]
0.187 µM	0.0408 µM	0.136 µM	0.363 µM	0.192 µM				CCC(CC)n1c(=O)ccc2cnc(Nc3ccc(C#N)cc3)nc21 [Example 484]
0.098 µM	0.016 µM	0.074 µM	0.34 µM	0.11 µM				CCC(CC)n1c(=O)ccc2cnc(Nc3ccc(Cl)c(C)c3)nc21 [Example 500, 2-(4-Chloro-3-methyl-phenylamino)-8-(1-ethyl-propyl)-8H-pyrido[2,3-d]pyrimidin-7-one]
0.087 µM	0.0865 µM	0.103 µM	0.32 µM	0.156 µM				O=c1ccc2cnc(Nc3ccc4[nH]ccc4c3)nc2n1CC1CC1 [Example 563, 8-Cyclopropylmethyl-2-(1H-indol-5-ylamino)-8H-pyrido[2,3-d]pyrimidin-7-one]
0.0635 µM	0.074 µM	0.0887 µM	0.22 µM	0.145 µM				CC(C)(C)OC(=O)Nc1ccc(Nc2ncc3ccc(=O)n(C4CCCC4)c3n2)cc1 [Example 535, [4-(8-Cyclopentyl-7-oxo-7,8-dihydro-pyrido[2,3-d]pyrimidin-2-ylamino)-phenyl]-carbamic acid tert-butyl ester]
0.025 µM	0.0087 µM	0.012 µM	0.0505 µM	0.0145 µM				CCC(CC)n1c(=O)ccc2cnc(Nc3ccc4[nH]c(=O)[nH]c4c3)nc21 [Example 493, 8-(1-Ethyl-propyl)-2-(2-oxo-2,3-dihydro-1H-benzimidazol-5-ylamino)-8H-pyrido[2,3-d]pyrimidin-7-one]
0.0235 µM	0.0235 µM	0.0143 µM	0.0335 µM	0.028 µM				O=c1ccc2cnc(Nc3ccc(O)c(Cl)c3)nc2n1C1CCCC1 [Example 539, 2-(3-Chloro-4-hydroxy-phenylamino)-8-cyclopentyl-8H-pyrido[2,3-d]pyrimidin-7-one]
